Paper PMC3345832, “EROD and MROD as Markers of Cytochrome P450 1A Activities in Hepatic Microsomes from Entire and Castrated Male Pigs” (Sensors (Basel, Switzerland), 2009)
Like-named read-outs stand apart in the source and are kept apart here.

What was measured:
[1] = test system: EROD activity (7-ethoxyresorufin O-deethylation); assay: Enzyme kinetics of resorufin formation from 7-ethoxyresorufin (EROD) in hepatic microsomes; type: in vitro ADME, pig; settings: male, pig, 95% confidence interval
Method: (§1) Incubation mixtures contained microsomal protein (0.2 mg), phosphate buffer (pH 7.4, 50 mM) and substrate (2 μM; 7-ethoxyresofurin for EROD activity or 7-methoxyresofurin for MROD activity). Reactions were started by the addition of 1 mM NADPH. The reaction mixture, in a final volume of 500 μL, was incubated in a water bath at 37 °C for 5 min. Reactions were terminated with ice-cold 100% methanol (500 μL), followed by centrifugation at 7,500 × g for 5 min. Resorufin concentrations in the supernatants were measured with HPLC the same day as described above. EROD and MROD activities were expressed as pmol of resorufin per milligram protein and minute.
(§2) The studies were performed by using two pools of microsomes from six entire (pool 1) and six castrated male pigs (pool 2). For the kinetic studies, EROD and MROD activities were determined over the substrate concentration range from 0.0156 to 3.0 μM. […] The final concentration of DMSO in the incubations was below 0.5%.
(§3) Michaelis-Menten parameters (Km and Vmax values) and inhibition constants (Ki) were determined by a GraphPad Prism version 4.0 for Windows, GraphPad Software (San Diego California, USA). Data were additionally assayed by a SigmaPlot Enzyme Kinetics 1.3 software. Visual analysis of Eadie-Hofstee plots was used to categorise enzyme kinetics as mono- or biphasic, i.e. whether one or more enzymes participate in the reaction. When Eadie-Hofstee plots indicated monophasic kinetics, the following equation was applied to estimate kinetic parameters: V=(Vmax*S)/(Km+S); when Eadie-Hofstee plots indicated biphasic kinetics, the following equation was applied: V=(Vmax1*S)/(Km1+S)+ (V max2*S)/(Km2+S).

[2] = test system: porcine liver microsomes (EROD); assay: as above; type: in vitro ADME, pig; settings: 95% confidence interval
Method: as §1, §2, §3

[3] = test system: porcine liver microsomes (EROD); design: method as in Messina et al. [6]; settings: ref Messina et al. [6]; cited from earlier work
[4] = test system: porcine liver microsomes (MROD); settings: 95% confidence interval
[5] = test system: porcine liver microsomes (MROD); settings: cited from earlier work
[6] = test system: EROD activities in porcine liver microsomes (CYP1A); settings: for EROD activity, % of the control values: 20 μM inhibitor, microsomes from entire and castrated male pigs; for Ki, EROD: substrate 0.25 to 2 µM
Method: as §1
(§4) The studies were performed by using two pools of microsomes from six entire (pool 1) and six castrated male pigs (pool 2). […] For the inhibition study, the substrate range was from 0.25 to 2 µM. […] The inhibitors were dissolved in DMSO, and the same volume of DMSO was added to the control incubations. The final concentration of DMSO in the incubations was below 0.5%. All inhibitors were added before the addition of the substrate. […] Inhibition is expressed as the percent of the corresponding incubation control.
(§5) Michaelis-Menten parameters (Km and Vmax values) and inhibition constants (Ki) were determined by a GraphPad Prism version 4.0 for Windows, GraphPad Software (San Diego California, USA). Data were additionally assayed by a SigmaPlot Enzyme Kinetics 1.3 software. […] When Eadie-Hofstee plots indicated monophasic kinetics, the following equation was applied to estimate kinetic parameters: V=(Vmax*S)/(Km+S); when Eadie-Hofstee plots indicated biphasic kinetics, the following equation was applied: V=(Vmax1*S)/(Km1+S)+ (V max2*S)/(Km2+S).

CYP1A (EROD activity) = assay: in vitro; settings: male, pig, substrate 0.25 to 2 µM
Method: as §1, §4, §5

CYP1A (MROD activity) = assay: in vitro; settings: male, pig, pH 7.4, Ki
Method: as §1, §4, §5

[7] = test system: MROD activities in porcine liver microsomes (CYP1A)
Method: as §1, §4, §5

[8] = Stability of resorufin in incubation supernatants; type: physicochemical
Method: The stability was assessed by measuring resorufin in the supernatant (n=8) stored in +4 °C and protected from light for several days and measured at days 0, 1, 2, 3, 5 and 8. A pool of microsomes used for the stability study was previously used for study on linearity with microsomal protein. Resorufin concentrations in those samples varied from 0.9 to 8.1 pmol/mL. Stability of resorufin stored in room temperature was assessed using four samples with resorufin concentrations from 1.5 to 2.6 pmol/mL.

[9] = 20 μM inhibitor, microsomes from entire and castrated male pigs
[10] = microsomes from castrated pigs, substrate 0.25 to 2 µM
[11] = microsomes from entire male pigs, substrate 0.25 to 2 µM

CCOc1ccc2nc3ccc(=O)cc-3oc2c1 [7-ethoxyresorufin]
Km at 5 min ([1]; liver microsomes (pool 1, six entire male pigs), pH 7.4, entire male pigs, read-out: Km (CI), EROD high-affinity component): 0.01 µM
Km at 5 min ([1]; liver microsomes (pool 1, six entire male pigs), pH 7.4, entire male pigs, read-out: Km (CI), EROD low-affinity component): 0.54 µM
Km at 5 min ([1]; liver microsomes (pool 2, six castrated male pigs), pH 7.4, castrated male pigs, read-out: Km (CI), EROD high-affinity component): 0.01 µM
Km at 5 min ([1]; liver microsomes (pool 2, six castrated male pigs), pH 7.4, castrated male pigs, read-out: Km (CI), EROD low-affinity component): 1.25 µM
Vmax (CI), EROD high-affinity component ([2]; castrated male pigs): 7.3 (5.5 – 9.0) pmol/min/mg
Vmax (CI), EROD low-affinity component ([2]; castrated male pigs): 15.2 (12.9 – 17.6) pmol/min/mg
Vmax (CI), EROD high-affinity component ([2]; entire male pigs): 5.9 (3.1 – 8.6) pmol/min/mg
Vmax (CI), EROD low-affinity component ([2]; entire male pigs): 11.7 (9.6 – 13.8) pmol/min/mg
Km [3]: 0.64 µM

COc1ccc2nc3ccc(=O)cc-3oc2c1 [7-methoxyresorufin]
Vmax (CI), MROD ([4]; castrated male pigs): 2.6 (2.5 – 2.8) pmol/min/mg
Vmax (CI), MROD ([4]; entire male pigs): 0.8 (0.7 – 0.9) pmol/min/mg
Km [5]: 2.2 µM

O=c1cc(-c2ccccc2)oc2c1ccc1ccccc12 [ANF, α-naphthoflavone]
EROD activity, % of the control values [6]: 19–23%
Ki at 5 min (CYP1A (EROD activity); liver microsomes (pool 1, six entire male pigs), pH 7.4, probe 7-ethoxyresorufin, 0.25 to 2 µM, Ki, microsomes from entire male pigs): 31 nM
Ki at 5 min (CYP1A (EROD activity); liver microsomes (pool 2, six castrated male pigs), pH 7.4, probe 7-ethoxyresorufin, 0.25 to 2 µM, Ki, microsomes from castrated pigs): 96 nM
Ki at 5 min (CYP1A (MROD activity)): 14 nM
MROD activity, % of the control values [7, 9]: 30%
Ki ([7]; male, pig, 5 min, pH 7.4): 18 nM

Cc1c2ccncc2c(C)c2c1[nH]c1ccccc12 [Ellipticine, ellipticine]
EROD activity, % of the control values [6]: 8–10%
Ki at 5 min (CYP1A (EROD activity); pH 7.4, Ki, microsomes from castrated pigs): 21 nM
Ki at 5 min (CYP1A (EROD activity); pH 7.4, Ki, microsomes from entire male pigs): 17 nM
Ki at 5 min (CYP1A (MROD activity); [10]): 19 nM
Ki at 5 min (CYP1A (MROD activity); [11]): 24 nM
MROD activity, % of the control values [7, 9]: 14–16%

Cc1nc2c([nH]1)c(=O)n(C)c(=O)n2Cc1ccco1 [Furafylline, furafylline]
Effect on EROD activities ([6]; 10-100 μM, pre-incubated with microsomes and NADPH): did not affect EROD activities
Ki, EROD ([6]; microsomes from castrated pigs): no ^*
Ki, EROD ([6]; microsomes from entire male pigs): no ^*
MROD activity, % of the control values ([7]; 100 μM inhibitor, pre-incubated 10 min with NADPH, entire and castrated male pigs): 55–61%
Inhibition of MROD activity without pre-incubation ([7]; no pre-incubation of microsomes and inhibitor with NADPH (data not shown)): No inhibition

O=c1ccc2nc3ccc(O)cc3oc-2c1 [Resorufin]
Time stable in supernatants ([8]; stored at 4 °C under dark conditions): at least 5 days
Time stable in supernatants ([8]; stored at room temperature): at least 1 day
